Results published in patent publication US8604055B2, “Substituted benzylamino quinolines as cholesterol ester-transfer protein inhibitors” (Dr. Reddy's Laboratories Ltd., priority 2004, dated 2013).

Columns and labels:
Recombinant CETP enzyme = target: T1, Recombinant CETP enzyme (Homo sapiens, UniProt P11597); experiment: In vitro fluorescence-based CETP inhibition assay (BODIPY-CE transfer from donor to acceptor microemulsions); assay type: biochemical; conditions: recombinant CETP 0.14 ng/μl; transfer of fluorescent cholesteryl ester monitored over 2 hours; vs DMSO controls
T1 construct: purchased Cardiovascular Targets
T1 sequence (P11597 18-493): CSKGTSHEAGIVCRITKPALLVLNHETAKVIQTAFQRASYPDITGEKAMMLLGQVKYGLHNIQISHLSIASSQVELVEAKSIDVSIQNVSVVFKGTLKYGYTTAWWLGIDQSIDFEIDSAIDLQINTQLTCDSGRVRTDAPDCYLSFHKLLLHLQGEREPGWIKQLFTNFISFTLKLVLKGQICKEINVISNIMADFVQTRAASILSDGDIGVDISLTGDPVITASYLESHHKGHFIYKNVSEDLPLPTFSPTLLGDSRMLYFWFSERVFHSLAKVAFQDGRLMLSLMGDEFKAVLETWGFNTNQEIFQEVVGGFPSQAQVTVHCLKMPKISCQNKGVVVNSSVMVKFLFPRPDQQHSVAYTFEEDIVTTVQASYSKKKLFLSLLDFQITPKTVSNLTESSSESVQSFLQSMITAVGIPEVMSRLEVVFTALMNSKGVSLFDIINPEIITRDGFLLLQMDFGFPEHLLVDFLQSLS
Protocol: An in vitro fluorescence-based assay to identify CETP inhibitors was developed from modifications of the protocols outlined in Bisgaier et al., J Lipid Res., 34(9): 1625-34 (1993) and Epps et al., Chem Phys Lipids., 77(1): 51-63 (1995). Acceptor and donor lipid microemulsions were prepared according to Bisgaier et al., 1993, except that the buffer was prepared with 0.67 ug/mL human HDL (Calbiochem). Donor microemulsions contained the fluorescent cholesteryl ester analog BODIPY-CE (Molecular Probes), characterized by excitation and emission maxima at 503 nm and 518 nm, respectively. The CETP-mediated transfer of fluorescent cholesteryl ester to acceptor particles was monitored over a 2-hour time period using the FAM filter set (excitation 492 nm, emission 516 nm) in an MX3000P fluorescent plate reader (Stratagene). Recombinant CETP enzyme (Cardiovascular Targets) was used at 0.14 ng/μl, final concentration, to achieve lipid transfer. CETP inhibition by compounds was compared to DMSO controlsand graphed as a percentage of the control CETP activity over 2 hours. The IC50 curves for CETP inhibition were generated from the activity profiles. Active compounds were also tested for CETP inhibition as above, but in the presence of 3% human serum albumin, fraction V (Calbiochem).

melting point [°C]	IC50 (Recombinant CETP enzyme) [nM]	SMILES
98	–	CCCS(=O)(=O)c1nc2c(C)cccc2cc1CN(Cc1cc(C(F)(F)F)cc(C(F)(F)F)c1)C(=O)OCC [Example 136, (3,5-bis-trifluoromethyl-benzyl)-[8-methyl-2-(propane-1-sulfonyl)-quinolin-3-ylmethyl]-carbamic acid ethyl ester]
–	≤ 1000	CCn1ncc2cc(CN(Cc3cc(C(F)(F)F)cc(C(F)(F)F)c3)c3nnn(C)n3)c(N(CC3CC3)CC3CC3)nc21 [Example 14, (5-{[(3,5-bis-trifluoromethyl-benzyl)-(2-methyl-2H-tetrazol-5-yl)-amino]-methyl}-1-ethyl-1H-pyrazolo[3,4-b]pyridin-6-yl)-bis-cyclopropylmethyl-amine]
–	≤ 1000	Cc1nn(C)c2nc(N(CC3CC3)C(=O)C3CC3)c(CN(Cc3cc(C(F)(F)F)cc(C(F)(F)F)c3)c3nnn(C)n3)cc12 [Example 27, cyclopropanecarboxylic acid (5-{[(3,5-bis-trifluoromethyl-benzyl)-(2-methyl-2H-tetrazol-5-yl)-amino]-methyl}-1,3-dimethyl-1H-pyrazolo[3,4-b]pyridin-6-yl)-cyclopropylmethyl-amide]
–	≤ 5000	CCCN(CC1CCCC1)c1nc2ccccc2cc1CN(Cc1cc(C(F)(F)F)cc(C(F)(F)F)c1)C(=O)OCC [Example 43, (3,5-bis-trifluoromethyl-benzyl)-[2-(cyclopentylmethyl-propyl-amino)-quinolin-3-ylmethyl]-carbamic acid ethyl ester]
–	≤ 1000	CCN(CC1CCC1)c1nc2c(cc1CN(Cc1cc(C(F)(F)F)cc(C(F)(F)F)c1)c1nnn(C)n1)c(C)nn2C [Example 1, (5-{[(3,5-bis-trifluoromethyl-benzyl)-(2-methyl-2H-tetrazole-5-yl)-amino]-methyl}-1,3-dimethyl-1H-pyrazolo[3,4-b]pyridin-6-yl)-cyclobutylmethyl-ethyl-amine]
–	≤ 1000	Cc1nn(C)c2nc(N(CC3CC3)CC3CC3)c(CN(Cc3cc(C(F)(F)F)cc(C(F)(F)F)c3)c3nnn(C)n3)cc12 [Example 2, (5-{[(3,5-bis-trifluoromethyl-benzyl)-(2-methyl-2H-tetrazole-5-yl)-amino]-methyl}-1,3-dimethyl-1H-pyrazolo[3,4-b]pyridin-6-yl)-bis-cyclopropylmethyl-amine]
–	≤ 1000	Cn1nnc(N(Cc2cc(C(F)(F)F)cc(C(F)(F)F)c2)Cc2cc3cccc(Cl)c3nc2N(CC2CC2)CC2CC2)n1 [Example 90]
–	≤ 1000	CCN(CC1CCCC1)c1nc2onc(C)c2cc1CN(Cc1cc(C(F)(F)F)cc(C(F)(F)F)c1)C(=O)OC [Example 32, (3,5-bis-trifluoromethyl-benzyl)-[6-(cyclopentylmethyl-ethyl-amino)-3-methyl-isoxazolo[5,4-b]pyridine-5-ylmethyl}-carbamic acid methyl ester]
–	≤ 5000	CCOC(=O)N(Cc1cc(C(F)(F)F)cc(C(F)(F)F)c1)Cc1cc2ccccc2nc1N(CC)CC1CCCCC1 [Example 42, (3,5-bis-trifluoromethyl-benzyl)-[2-(cyclohexylmethyl-ethyl-amino)-quinolin-3-ylmethyl]-carbamic acid ethyl ester]
–	≤ 1000	CCN(CC1CCCC1)c1nc2c(cc1CN(Cc1cc(Cl)cc(Cl)c1)c1nnn(C)n1)c(C)nn2C [Example 19, cyclopentylmethyl-(1,3-dimethyl-5-{[(2-methyl-2H-tetrazol-5-yl)-(3,5-dichlorobenzyl)-amino]-methyl}-1H-pyrazolo[3,4-b]pyridin-6-yl)-ethyl-amine]
–	≤ 1000	Cc1cccc2cc(CN(Cc3cc(C(F)(F)F)cc(C(F)(F)F)c3)c3nnn(CCNC(=O)OC(C)(C)C)n3)c(N(CC3CC3)CC3CC3)nc12 [Example 86, (2-{5-[[2-(bis-cyclopropylmethyl-amino)-8-methyl-quinolin-3-ylmethyl]-(3,5-bis-trifluoromethyl-benzyl)-amino]-tetrazol-2-yl}-ethyl)-carbamic acid tert-butyl ester]
–	≤ 1000	Cc1cccc2cc(CN(Cc3cc(C(F)(F)F)cc(C(F)(F)F)c3)c3nnn(C(C)C)n3)c(N(CC3CC3)CC3CC3)nc12 [Example 85]
–	≤ 1000	Cc1cccc2cc(CN(Cc3cc(C(F)(F)F)cc(C(F)(F)F)c3)c3nnn(CCO)n3)c(N(CC3CC3)CC3CC3)nc12 [Example 93, 2-{5-[[2-(bis-cyclopropylmethyl-amino)-8-methyl-quinoline-3-ylmethyl]-(3,5-bistrifluoromethyl-benzyl)-amino]-tetrazol-2-yl}-ethanol]
–	≤ 1000	CCN(CC1CC1)c1nc2ccccc2cc1CN(Cc1cc(C(F)(F)F)cc(C(F)(F)F)c1)c1nnn(C)n1 [Example 55]
–	≤ 1000	CCN(c1nc2c(cc1CN(Cc1cc(C(F)(F)F)cc(C(F)(F)F)c1)c1nnn(C)n1)c(C)nn2C)C(C)C [Example 7, (5-{[(3,5-bis-trifluoromethyl-benzyl)-(2-methyl-2H-tetrazole-5-yl)-amino]-methyl}-1,3-dimethyl-1H-pyrazolo[3,4-b]pyridin-6-yl)-ethyl-isopropyl-amine]
–	≤ 5000	CCN(CC1CC1)c1nc2ccccc2cc1CN(Cc1cc(C(F)(F)F)cc(C(F)(F)F)c1)C(=O)OC [Example 44, (3,5-bis-trifluoromethyl-benzyl)-[2-(cyclopropylmethyl-ethyl-amino)-quinolin-3-ylmethyl]-carbamic acid methyl ester]
–	≤ 1000	Cc1cc(N(Cc2cc(C(F)(F)F)cc(C(F)(F)F)c2)Cc2cc3c(C)nn(C)c3nc2N(CC2CC2)CC2CC2)no1 [Example 11, (5-{[(3,5-bis-trifluoromethyl-benzyl)-(5-methyl-isoxazol-3-yl)-amino]-methyl}-1,3-dimethyl-1H-pyrazolo[3,4-b]pyridin-6-yl)-bis-cyclopropylmethyl-amine]
–	≤ 1000	Cc1nn(C)c2nc(N(CC3CC3)CC3CC3)c(CN(Cc3cc(Cl)cc(Cl)c3)c3nnn(C)n3)cc12 [Example 21, bis-cyclopropylmethyl-(5-{[(3,5-dichlorobenzyl)-(2-methyl-2H-tetrazol-5-yl)-amino]-methyl}-1,3-dimethyl-1H-pyrazolo[3,4-b]pyridin-6-yl)-amine]
–	≤ 1000	CCN(CC1CCC1)c1nc2c(cc1CN(Cc1cc(C(F)(F)F)cc(C(F)(F)F)c1)c1cc(C)on1)c(C)nn2C [Example 10, (5-{[(3,5-bis-trifluoromethyl-benzyl)-(5-methyl-isoxazol-3-yl)-amino]-methyl}-1,3-dimethyl-1H-pyrazolo[3,4-b]pyridin-6-yl)-cyclobutylmethyl-ethyl-amine]
–	≤ 5000	CCN(CC1CCCC1)c1nc2ccccc2cc1CN(Cc1cc(C(F)(F)F)cc(C(F)(F)F)c1)Cc1nnnn1C [Example 71, (3-{[(3,5-bis-trifluoromethyl-benzyl)-(1-methyl-1H-tetrazol-5-ylmethyl)-amino]-methyl}-quinolin-2-yl)-cyclopentylmethyl-ethyl-amine]
–	≤ 1000	Cn1nnc(N(Cc2cc(C(F)(F)F)cc(C(F)(F)F)c2)Cc2cc3cnn(C)c3nc2N(CC2CC2)CC2CC2)n1 [Example 13, (5-{[(3,5-bis-trifluoromethyl-benzyl)-(2-methyl-2H-tetrazol-5-yl)-amino]-methyl}-1-methyl-1H-pyrazolo[3,4-b]pyridin-6-yl)-bis-cyclopropylmethyl-amine]
–	≤ 5000	CCN(CC1CCCC1)c1nc2ccccc2cc1CN(Cc1cc(C(F)(F)F)cc(C(F)(F)F)c1)c1ccccn1 [Example 69, (3-{[(3,5-bis-trifluoromethyl-benzyl)-pyridin-2-yl-amino]-methyl)-quinolin-2-yl)-cyclopentylmethyl-ethyl-amine]
–	≤ 1000	CCN(CC1CCC1)c1nc2c(cnn2CC2CC2)cc1CN(Cc1cc(C(F)(F)F)cc(C(F)(F)F)c1)c1nnn(C)n1 [Example 101, (5-{[(3,5-bis-trifluoromethyl-benzyl)-(2-methyl-2H-tetrazol-5-yl)-amino]methyl}-1-cyclopropylmethyl-1H-pyrazolo[3,4-b]pyridin-6-yl)-cyclobutylmethyl-ethyl-amine]
–	≤ 1000	CCN(CC1CCCC1)c1nc2c(cc1CN(Cc1cc(F)cc(C(F)(F)F)c1)c1nnn(C)n1)c(C)nn2C [Example 20, cyclopentylmethyl-ethyl-(5-{[(3-fluoro-5-trifluoromethyl-benzyl)-(2-methyl-2H-tetrazol-5-yl)-amino]-methyl}-1,3-dimethyl-1H-pyrazolo[3,4-b]pyridin-6-yl)-amine]
–	≤ 1000	CCCCN(CC)c1nc2ccccc2cc1CN(Cc1cc(C(F)(F)F)cc(C(F)(F)F)c1)c1nnn(C)n1 [Example 54]
–	≤ 1000	CCN(CC1CCCC1)c1nc2ccccc2cc1CN(Cc1cc(C(F)(F)F)cc(C(F)(F)F)c1)c1nc(C)co1 [Example 67]
